Molecules are shown by their SMILES. Calls of active or inactive are those of the source.

For assay [1], the target named is T1, Polyadenylate-binding protein 1 (Homo sapiens, UniProt P11940). Description: PABP1 MLLE–PAM2 interaction inhibitors, dose response, miRNA deadenylation inhibitor project, biochemical, fluorescence polarization, Cy5-PAM2 peptide, secondary (AID 602260). To be noted: read-out: IC50_Mean. The class given is functional. For orientation: In fluorescence polarisation assays a small probe gives low polarisation when free and higher when bound to something large.
T1 sequence (P11940 whole entry): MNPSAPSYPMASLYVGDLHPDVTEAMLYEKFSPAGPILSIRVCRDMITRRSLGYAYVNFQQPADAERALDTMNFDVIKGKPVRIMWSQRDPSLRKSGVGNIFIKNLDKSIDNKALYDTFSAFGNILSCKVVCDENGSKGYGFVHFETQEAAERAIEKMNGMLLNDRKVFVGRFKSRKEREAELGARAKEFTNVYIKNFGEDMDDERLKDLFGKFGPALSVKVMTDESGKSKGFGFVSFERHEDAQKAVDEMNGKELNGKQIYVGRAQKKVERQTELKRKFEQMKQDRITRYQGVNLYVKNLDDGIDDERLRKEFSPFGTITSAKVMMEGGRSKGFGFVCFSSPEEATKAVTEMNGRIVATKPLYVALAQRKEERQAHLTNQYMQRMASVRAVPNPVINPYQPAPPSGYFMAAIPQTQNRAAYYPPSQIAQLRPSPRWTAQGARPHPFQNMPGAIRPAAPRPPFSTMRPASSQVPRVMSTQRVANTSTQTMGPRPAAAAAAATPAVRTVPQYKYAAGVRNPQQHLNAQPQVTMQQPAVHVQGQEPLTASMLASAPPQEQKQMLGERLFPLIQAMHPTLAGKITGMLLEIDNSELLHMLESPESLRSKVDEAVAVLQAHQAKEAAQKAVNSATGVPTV

A further assay deals with Streptococcus. Description: Group A Streptococcus viability loss, dose response, counter-screen for streptokinase expression inhibitor project, luminescence, BacTiterGlo (AID 1915).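 Note: potency for reduction of bacterial viability or growth.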 In kind it is functional, organism-based. Background: A counterscreen serves to expose hits that act by an unwanted route or on another target.
A further assay deals with HEK293. Put plainly: inhibitors of LMP1-driven NF-kB reporter, dose response, cell-based, HEK293, luciferase, cherry-pick (AID 588343). To be noted: Homo sapiens. In kind it is functional.
For assay [2], the target named is T1, Polyadenylate-binding protein 1. Description: PABP1 MLLE–PAM2 binding inhibitor potency, dose response, biochemical, fluorescence polarization, FITC-PAM2 peptide (AID 602259). The class given is functional. To be noted: read-out: IC50_Mean.
The next assay has as its system Vero. Put plainly: cells. In kind it is functional. To be noted: Chlorocebus sabaeus.
Assay [3] has as its system Streptococcus sp. 'group A'. Put plainly: growth inhibition of control SK(-) GAS strain, dose response, counter-screen for streptokinase expression inhibitor project, luminescence, kanamycin, BacTiterGlo, confirmation (AID 1900). The class given is functional, organism-based.
Assay [4] has as its target T2, High affinity choline transporter 1 (Homo sapiens, UniProt Q9GZV3).
T2 sequence (Q9GZV3 whole entry): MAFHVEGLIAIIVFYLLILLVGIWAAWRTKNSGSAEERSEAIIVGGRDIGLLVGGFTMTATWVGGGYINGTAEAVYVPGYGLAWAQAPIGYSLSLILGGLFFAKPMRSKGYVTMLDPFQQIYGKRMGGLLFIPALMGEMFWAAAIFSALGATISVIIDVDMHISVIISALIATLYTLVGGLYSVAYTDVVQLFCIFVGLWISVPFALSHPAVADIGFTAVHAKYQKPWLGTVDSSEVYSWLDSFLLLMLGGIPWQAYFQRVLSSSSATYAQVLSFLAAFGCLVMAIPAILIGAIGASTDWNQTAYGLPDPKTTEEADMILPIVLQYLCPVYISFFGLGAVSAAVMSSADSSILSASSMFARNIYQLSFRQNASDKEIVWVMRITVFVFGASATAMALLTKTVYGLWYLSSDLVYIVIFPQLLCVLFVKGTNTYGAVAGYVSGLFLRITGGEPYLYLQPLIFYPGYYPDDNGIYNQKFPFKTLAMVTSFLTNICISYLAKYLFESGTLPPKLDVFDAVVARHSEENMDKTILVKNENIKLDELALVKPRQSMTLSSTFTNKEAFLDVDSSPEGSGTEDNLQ
Put plainly: CHT inhibitors, dose response, cell-based, 5-point CRC, membrane potential dye (AID 504840). In kind it is functional.

The subject of a further assay is HeLa. Description: HeLa cell cytotoxicity, dose response, cytotoxicity control for MITF activator project, CellTiter-Glo luminescence, cherry-pick samples (AID 540259). Particulars: Homo sapiens. The class given is functional, cell-based. Background: ATP-based viability assays read luminescence as a measure of living cells.
In another assay the test system is H4. Put plainly: Luminescence Cell-Based Dose Response HTS to Identify Activators of 5'UTR Stem-Loop Driven Prion Protein mRNA Translation in H4 Neuroglioblastoma Cells. [Related pubchem assays: 1829 (Project Summary), 1814 (Primary HTS)]. The class given is functional. Particulars: Homo sapiens.
Assay [5] can be described thus: Luminescence Cell-Based Dose Response HTS to Identify Activators of Luciferase Translation or Activity in H4 […] Cells. [Related pubchem assays: 1829 (Project Summary), 1814 (Primary HTS)]. In kind it is functional.
Assay [6] concerns the target DNA dC->dU-editing enzyme APOBEC-3G (Homo sapiens, UniProt Q9HC16). Put plainly: Dose Response confirmation of small molecule APOBEC3G DNA Deaminase Inhibitors via a fluorescence-based single-stranded DNA deaminase assay. [Related pubchem assays (depositor defined):AID493012, AID493028]. In kind it is functional.
Assay [7] is described as follows: HEp-2 cell cytotoxicity, dose response, cytotoxicity control for RSV inhibitor project, HTS (AID 2410). Particulars: human respiratory syncytial virus. In kind it is functional.
In the next assay the target is Paired box protein Pax-8 (Homo sapiens, UniProt Q06710). Put plainly: inhibitors of PAX8-driven TPO luciferase reporter, dose response, RMG-I cells, cherry-pick (AID 687027).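 Note: luciferase reporter driven by Pax8 target thyroperoxidase promoter measured by SteadyGlo luminescence.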 The class given is functional, cell-based.
Paired box protein Pax-8, sequence (Q06710 whole entry): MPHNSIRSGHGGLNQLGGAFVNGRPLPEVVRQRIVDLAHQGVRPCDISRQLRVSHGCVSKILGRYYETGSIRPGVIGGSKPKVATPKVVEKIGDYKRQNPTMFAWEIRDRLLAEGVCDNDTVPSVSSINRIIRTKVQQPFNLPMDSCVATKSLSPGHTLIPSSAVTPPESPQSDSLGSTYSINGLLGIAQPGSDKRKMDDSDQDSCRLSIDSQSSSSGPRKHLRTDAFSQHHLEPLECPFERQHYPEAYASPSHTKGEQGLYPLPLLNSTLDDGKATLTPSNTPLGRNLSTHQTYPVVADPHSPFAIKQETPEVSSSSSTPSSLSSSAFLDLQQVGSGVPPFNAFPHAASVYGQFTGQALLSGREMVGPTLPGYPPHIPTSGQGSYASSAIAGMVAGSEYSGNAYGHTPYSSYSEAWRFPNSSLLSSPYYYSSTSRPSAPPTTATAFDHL
A short description of assay [8]: cytotoxicity in OVCAR8 ovarian cancer cells, dose response, PAX8 project, cell-based, plate reader, dry powder samples (AID 743197). Particulars: OVCAR-8. The class given is functional.
Assay [9] is described as follows: HEK293T cytotoxicity, dose response, cytotoxicity control for miR-122 modulator project, cell-based, inhibitor set, cherry-pick, set 2 (AID 720697). The class given is functional.
In assay [10] the target is Induced myeloid leukemia cell differentiation protein Mcl-1 (Homo sapiens, UniProt Q07820). In kind it is functional.
Induced myeloid leukemia cell differentiation protein Mcl-1, sequence (Q07820 whole entry, the tested form may be a part): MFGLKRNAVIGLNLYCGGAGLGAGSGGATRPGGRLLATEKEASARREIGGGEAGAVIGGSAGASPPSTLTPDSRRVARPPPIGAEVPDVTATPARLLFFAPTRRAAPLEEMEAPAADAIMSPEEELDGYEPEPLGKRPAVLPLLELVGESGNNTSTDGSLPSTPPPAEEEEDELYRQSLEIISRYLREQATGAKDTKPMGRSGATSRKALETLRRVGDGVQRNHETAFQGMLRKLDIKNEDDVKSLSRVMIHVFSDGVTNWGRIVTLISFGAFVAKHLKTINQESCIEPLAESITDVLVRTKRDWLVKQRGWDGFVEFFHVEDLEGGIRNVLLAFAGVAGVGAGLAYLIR
For assay [11], the target named is T3, Fatty acid synthase (Homo sapiens, UniProt P49327). Description: FAS thioesterase domain inhibitors, dose response, biochemical, endpoint fluorescence intensity, uHTS hits (AID 624327).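 Note: fluorescence from hydrolysis of an O-methyl fluorescein acyl ester substrate by the enzyme.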 In kind it is functional.
T3 sequence (P49327 whole entry, the tested form may be a part): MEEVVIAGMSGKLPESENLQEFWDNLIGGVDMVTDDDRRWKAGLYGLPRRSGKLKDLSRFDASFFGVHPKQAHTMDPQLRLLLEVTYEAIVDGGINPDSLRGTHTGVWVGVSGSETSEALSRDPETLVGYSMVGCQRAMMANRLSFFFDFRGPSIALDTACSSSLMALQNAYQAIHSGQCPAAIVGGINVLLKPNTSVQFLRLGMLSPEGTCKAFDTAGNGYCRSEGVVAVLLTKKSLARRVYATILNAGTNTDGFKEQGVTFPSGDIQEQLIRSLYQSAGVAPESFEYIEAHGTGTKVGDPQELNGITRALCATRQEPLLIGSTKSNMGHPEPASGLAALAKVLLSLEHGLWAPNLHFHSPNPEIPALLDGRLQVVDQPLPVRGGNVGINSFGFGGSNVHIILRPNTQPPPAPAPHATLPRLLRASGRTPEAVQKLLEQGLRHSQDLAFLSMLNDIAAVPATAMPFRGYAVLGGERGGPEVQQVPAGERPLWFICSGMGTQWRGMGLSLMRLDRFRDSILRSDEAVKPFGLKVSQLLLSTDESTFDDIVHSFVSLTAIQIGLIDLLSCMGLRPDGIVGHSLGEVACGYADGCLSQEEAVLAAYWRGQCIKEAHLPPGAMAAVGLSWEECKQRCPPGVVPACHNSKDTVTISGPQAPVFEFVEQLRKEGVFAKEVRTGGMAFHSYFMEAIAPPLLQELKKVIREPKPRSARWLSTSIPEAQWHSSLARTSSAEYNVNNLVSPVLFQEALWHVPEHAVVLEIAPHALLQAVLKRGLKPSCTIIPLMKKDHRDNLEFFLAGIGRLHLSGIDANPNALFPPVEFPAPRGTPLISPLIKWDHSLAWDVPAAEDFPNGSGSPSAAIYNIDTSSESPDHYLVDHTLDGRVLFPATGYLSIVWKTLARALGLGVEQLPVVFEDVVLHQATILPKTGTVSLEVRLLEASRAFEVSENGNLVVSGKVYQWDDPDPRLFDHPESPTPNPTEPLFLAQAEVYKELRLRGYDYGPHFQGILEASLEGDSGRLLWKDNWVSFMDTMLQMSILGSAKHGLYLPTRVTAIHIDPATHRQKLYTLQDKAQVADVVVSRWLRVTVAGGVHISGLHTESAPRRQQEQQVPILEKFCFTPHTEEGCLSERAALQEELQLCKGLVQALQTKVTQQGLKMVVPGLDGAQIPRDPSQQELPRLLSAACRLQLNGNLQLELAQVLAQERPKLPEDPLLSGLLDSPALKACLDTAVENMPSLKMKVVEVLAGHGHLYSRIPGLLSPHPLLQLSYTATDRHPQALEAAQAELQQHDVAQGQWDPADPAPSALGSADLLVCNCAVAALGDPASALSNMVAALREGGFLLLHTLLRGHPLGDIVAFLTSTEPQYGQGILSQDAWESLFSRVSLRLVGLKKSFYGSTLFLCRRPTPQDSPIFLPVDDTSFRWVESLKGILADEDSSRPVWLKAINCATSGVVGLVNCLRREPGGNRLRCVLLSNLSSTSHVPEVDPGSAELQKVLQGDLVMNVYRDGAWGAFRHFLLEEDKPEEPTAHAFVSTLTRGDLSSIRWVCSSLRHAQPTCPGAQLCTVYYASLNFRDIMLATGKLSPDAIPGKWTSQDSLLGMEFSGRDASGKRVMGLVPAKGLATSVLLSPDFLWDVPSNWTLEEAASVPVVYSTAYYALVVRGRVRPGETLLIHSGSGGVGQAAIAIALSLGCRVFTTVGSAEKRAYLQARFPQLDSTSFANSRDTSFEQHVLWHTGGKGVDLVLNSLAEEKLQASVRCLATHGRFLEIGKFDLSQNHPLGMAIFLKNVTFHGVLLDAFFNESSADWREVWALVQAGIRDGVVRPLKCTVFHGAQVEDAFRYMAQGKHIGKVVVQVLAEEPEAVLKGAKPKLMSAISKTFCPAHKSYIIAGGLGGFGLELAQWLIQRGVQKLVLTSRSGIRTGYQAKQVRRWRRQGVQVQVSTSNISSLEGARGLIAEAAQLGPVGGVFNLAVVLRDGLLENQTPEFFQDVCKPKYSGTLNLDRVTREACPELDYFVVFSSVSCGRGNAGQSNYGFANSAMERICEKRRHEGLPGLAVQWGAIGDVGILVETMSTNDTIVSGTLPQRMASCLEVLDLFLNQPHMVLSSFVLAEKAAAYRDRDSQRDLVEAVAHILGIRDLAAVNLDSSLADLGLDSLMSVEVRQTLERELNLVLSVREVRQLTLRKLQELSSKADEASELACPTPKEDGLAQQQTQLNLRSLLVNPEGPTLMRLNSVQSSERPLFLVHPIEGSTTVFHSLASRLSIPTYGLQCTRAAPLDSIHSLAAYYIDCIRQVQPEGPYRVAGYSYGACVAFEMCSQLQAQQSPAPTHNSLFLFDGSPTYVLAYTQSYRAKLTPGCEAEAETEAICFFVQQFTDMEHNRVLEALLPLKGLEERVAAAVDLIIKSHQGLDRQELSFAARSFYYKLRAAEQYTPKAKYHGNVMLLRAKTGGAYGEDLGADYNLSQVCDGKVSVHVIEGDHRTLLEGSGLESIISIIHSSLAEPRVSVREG
Assay [12] concerns the target T3, Fatty acid synthase. Put plainly: FAS thioesterase domain inhibitors, dose response, biochemical, kinetic fluorescence intensity (AID 624326).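 Note: rate of fluorescence rise from hydrolysis of a fluorogenic O-methyl fluorescein ester substrate.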 In kind it is functional.

DNA dC->dU-editing enzyme APOBEC-3G, sequence (Q9HC16 whole entry): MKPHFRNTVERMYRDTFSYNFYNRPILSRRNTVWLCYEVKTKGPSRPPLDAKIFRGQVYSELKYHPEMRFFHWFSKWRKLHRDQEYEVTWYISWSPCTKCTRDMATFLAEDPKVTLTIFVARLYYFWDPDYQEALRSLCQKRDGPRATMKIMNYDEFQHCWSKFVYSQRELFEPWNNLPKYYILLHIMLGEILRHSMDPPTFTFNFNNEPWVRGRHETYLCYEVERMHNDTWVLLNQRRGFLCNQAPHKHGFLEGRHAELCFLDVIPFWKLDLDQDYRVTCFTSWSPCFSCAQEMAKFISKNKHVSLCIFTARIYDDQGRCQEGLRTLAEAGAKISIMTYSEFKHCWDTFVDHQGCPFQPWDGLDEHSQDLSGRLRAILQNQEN

In the case of `C=CCn1c(O)c(N=NC(S)=Nc2ccccc2F)c2ccccc21`, the IC50 in assay [1] and in [2] was > 66 µM (inactive) throughout. Besides, the EC50 in the assay on Streptococcus is 1.08 µM (active); in [3], 0.628 µM (active). Besides, the AC50 with HEK293 was 2.88 µM (active). Also, the CC50 in the assay on Vero was 18.2 µM (active). Turning to `Cc1ccc(-c2cccc(CN3CCN(C(C)C)C(CCO)C3)c2)o1` (stereo not drawn), the IC50 in [4] is 7.85 µM (active). Regarding `O=c1c2ccccc2nnn1CSc1nc2sc3c(c2c(=O)n1CC1CCCO1)CCC3` (stereo not drawn), in assay [4], the IC50 is 15.8 µM (active). Turning to `COc1ccc(NC(C)=O)cc1S(=O)(=O)Nc1ccccc1C(=O)NCCc1ccccc1`, the AC50 in the assay on HeLa was 230 µM (active). The EC50 with H4 is 50.7 µM (active); in [5], 0.519 µM (active). Consider `CCn1c(S)nnc1CCCCc1nnc(S)n1CC`, for which, in assay [6], the IC50 was 25.8 µM (active). For `COc1ccccc1-c1cnn2c(NC3CCCC3)cc(C)nc12`, in the assay with HeLa, the AC50 was 117 µM (active). The EC50 with H4 was 16.2 µM (active); in [5] it was 0.139 µM (active). Besides, the CC50 in assay [7] was 40 µM (active). As for `C[C@@H]1CN([C@@H](C)CO)C(=O)c2cc(NS(=O)(=O)c3ccc(F)cc3)ccc2O[C@@H]1CN(C)Cc1ccc(C(F)(F)F)cc1`, the results for the AC50 (on Paired box protein Pax-8; in assay [8]) were 15.3 µM (active) and 49.5 µM (active), respectively. In the case of `O=C(O)CC(Sc1nnc(S)s1)C(=O)O` (stereo not drawn), the IC50 in assay [6] was 45.1 µM (active). `CN1c2ccc(-c3cccc(F)c3)cc2[C@@H]2[C@@H](CCN2C(=O)Cc2ccccc2)[C@@H]1CO`: the results for the AC50 (at Paired box protein Pax-8; in [8]) were 10.2 µM (active) and > 70 µM (inactive), respectively. Turning to `CCC(=O)N1[C@H](CN(C)C(C)=O)[C@H](c2ccc(-c3cccnc3)cc2)[C@@H]1CO`, the AC50 in assay [9] was 0.561 µM (active). With `Cc1ccc(-n2nc3ccc(NC(=O)C(C)C)cc3n2)cc1`, the AC50 in the assay with HeLa was 54.8 µM (active). Same read-out and setting: the value for `Cn1c(SCc2ccccc2Cl)nc2ccccc21` was 75 µM (active). Take `COc1cc(SC)ccc1C(=O)N1CCN(c2ccccc2)CC1`: the IC50 in assay [10] is < 0.4 µM (not active). As to `COc1cccc(CN(C)C(=O)c2ccc(COc3ccc(Cl)cc3)cc2)c1OC`, the half-maximal activity concentration (AC50) in the assay on HeLa is 54.8 µM (active).

As to `COc1ccc(-c2ccc3c(c2)[C@@H]2[C@@H](CCN2C(=O)C2CCCC2)[C@H](CO)N3C)cc1`, the AC50 at Paired box protein Pax-8 was 14.2 µM (active); in [8], > 70 µM (inactive). In the case of `Cc1nc(C(C)NC(=O)CCc2nnc(CCCc3ccccc3)o2)c(C)s1` (stereo not drawn), the AC50 in the assay on HeLa is 314 µM (active).

Consider `COc1ccc(N2C(=O)CC(Sc3n[nH]c(-c4ccc(C)cc4)n3)C2=O)cc1` (stereo not drawn), for which the IC50 in assay [6] was 21.2 µM (active).

Regarding `CC(C)OC(=O)Cn1cnc2ccc(Br)cc2c1=O`, in assay [10], the IC50 is recorded as 24.1 µM (not active).

For `CC1=C(C(=O)OCC(C)C)C(c2ccsc2)NC(=O)N1` (stereo not drawn), the IC50 in assay [10] is recorded as 2.4 µM (not active). Still for that read-out and setting: the value for `CCOC(=O)c1c(C)oc2c1c(C(c1ccncc1)N1CCOCC1)c(O)c1ccccc12` (stereo not drawn) was 1.16 µM (active). For `CCCNC(=O)Nc1ccc2c(c1)C(=O)N(C)[C@@H]1CC[C@@H](CC(=O)NCC3CCCCC3)O[C@H]1CO2`, the AC50 in assay [9] is 2.28 µM (active). `CC1(C(=O)NS(=O)(=O)c2ccc(C#N)cc2)CCN1C(=O)Cc1ccc(Cl)cc1Cl` (stereo not drawn): the IC50 on Fatty acid synthase [11] was 10.1 µM (active); on Fatty acid synthase [12] it was 5.77 µM (active). Regarding `Cc1ccc(SCC2=NN(c3nc(C)cc(C)n3)C(=O)C2)cc1`, the IC50 in [4] was 10.5 µM (active). Take `O=C(N/N=C/C1CC=CCC1)c1cc(-c2cccnc2)nc2ccccc12` (stereo not drawn): the IC50 in [4] was 15.1 µM (active).

In general, EC50 refers to the concentration giving half of the maximal effect. Usually AC50 stands for the midpoint of the concentration-response curve, whichever way the signal moves. One may read the CC50 as the concentration that lowers cell viability or growth by half.
